The subject of assay [1] is C. tyrobutyricum mutants. From the text: Cell growth was monitored by measuring the optical density at 600 nm (OD600) of the culture broth.
Assay [2] relates to AckKO(pMAD22). As to the kind of experiment: Batch fermentation in serum bottles with a hydrogenase inhibitor. In kind it is cell-based, Clostridium tyrobutyricum. Conditions: hydrogenase inhibitor added to fermentation.

Like-named read-outs stand apart in the source and are kept apart here.

From patent US9284580B2 (priority 2010, dated 2016) come the findings set out here.

With butanol, the “effect on cell growth” value in assay [1] (0.5% (v/v) butanol in RCM medium, strains studied) is on record as “does not have any apparent effect on cell growth”. Also, in assay [1] (2.0% (v/v) butanol, all strains started to grow after 2 days), the cell growth entry was “no significant cell growth was observed for the first 24 hours”. Further, the tolerated butanol concentration entry in assay [1] (after adaptation) is listed as “up to 2.0 % (v/v)”; in assay [1] (without adaptation), “up to 1.5 % (v/v)”.
On to `Cc1cc2nc3ccc(N(C)C)cc3nc2cc1N.Cl` [neutral red], for which the “effect on acids and butanol production from glucose” value in assay [2] is “significantly decreased acids production and enhanced butanol production from glucose”.
On to `C[n+]1ccc(-c2cc[n+](C)cc2)cc1` [methyl viologen], for which, in assay [2], the “effect on acids and butanol production from glucose” value is “significantly decreased acids production and enhanced butanol production from glucose”.
